In patent publication US20130130387A1, “METHOD FOR GENERATING INDUCED PLURIPOTENT STEM CELLS FROM KERATINOCYTES DERIVED FROM PLUCKED HAIR FOLLICLES” (Technion Research & Development Foundation Limited, priority 2010, published 2013):
Entries after “also recorded” stand apart in the source; their conditions may differ.

Key:
HFKTs (KTN) = assay: Conditions improving HFKT reprogramming: validated iPSC colonies; type: cell-based, human; conditions: for Validated iPSCs colonies: frozen virus, reduced virus concentration
[1] = test system: HFKT-iPSC-CMs (β-adrenergic signaling pathway); assay: [Ca2+]i transients and contractions of HFKT-iPSC-derived cardiomyocytes; type: cell-based, human; conditions: HFKT-iPSC-CMs clone KTR13, 37 day-old EB, stimulated at 0.6 Hz; effect within 2-3 min
Procedure: [Ca^2+]i transients and contractions were measured in small dissociated contracting areas of EBs by means of fura-2 fluorescence (Biotium, Hayward, Calif., USA) and a video edge detector, respectively, as previously described (Dolnikov et al. 2006; Sedan et al. 2008).
In order to investigate the basic properties of the intracellular Ca^2+ ([Ca^2+]i) handling machinery and the mechanical function, [Ca^2+]I transients and contractions were recorded from small contracting clusters of the HFKT-iPSC-CMs by means of fura-2 fluorescence and a video edge detector, respectively.

Compound	Validated iPSCs colonies (HFKTs (KTN); KTN + Cherry (3 reprogramming factors, no c-Myc))	Validated iPSCs colonies (HFKTs (KTN); KTN + Stemcca (4 reprogramming factors))	Generation of iPSCs with reduced number of factors (HFKTs (KTN); polycistronic vector with Oct4, Klf4 and Sox2, without c-Myc (cherry vector))	Effect on [Ca2+]i transient and contraction amplitudes [1]
Cc1c[nH]c(-c2cnc(NCCNc3ccc(C#N)cn3)nc2-c2ccc(Cl)cc2Cl)n1 [CHIR99021]	6	2	able to generate iPSCs with no c-Myc	–
CC(C)NCC(O)c1ccc(O)c(O)c1 (stereo not shown) [isoproterenol]	–	–	–	marked concentration-dependent positive inotropic effect; also recorded: increase in contraction amplitude
